Source: ChEMBL document CHEMBL4417636, “Small molecule inhibitors of pendrin ion exchange and pharmaceutical compositions” (2017)
Active and inactive are the calls of the source. The rule behind the calls is not given here.

Columns and labels:
Mus musculus [1] = test: Effect on renal function in C57B/6 mouse assessed as effect on urine pH at 50 mg/kg, ip; format: ADME, organism-based; conditions: in vivo
Mus musculus [2] = test: Effect on renal function in C57B/6 mouse assessed as effect on urinary salt excretion at 50 mg/kg, ip measured at 3 hrs; format: ADME, organism-based; conditions: in vivo
Pendrin = biological target: T1, Pendrin (Homo sapiens, UniProt O43511); test: Inhibition of human pendrin expressed in FRT cells co-expressing EYFP-HIF assessed as reduction in pendrin-mediated C17NO3(-) exchange incubated for 10 mins by pH-sensitive fluorescent probe BCECF-AM based fluorescence assay relative to control; format: cell-based
T1 sequence (O43511 whole entry): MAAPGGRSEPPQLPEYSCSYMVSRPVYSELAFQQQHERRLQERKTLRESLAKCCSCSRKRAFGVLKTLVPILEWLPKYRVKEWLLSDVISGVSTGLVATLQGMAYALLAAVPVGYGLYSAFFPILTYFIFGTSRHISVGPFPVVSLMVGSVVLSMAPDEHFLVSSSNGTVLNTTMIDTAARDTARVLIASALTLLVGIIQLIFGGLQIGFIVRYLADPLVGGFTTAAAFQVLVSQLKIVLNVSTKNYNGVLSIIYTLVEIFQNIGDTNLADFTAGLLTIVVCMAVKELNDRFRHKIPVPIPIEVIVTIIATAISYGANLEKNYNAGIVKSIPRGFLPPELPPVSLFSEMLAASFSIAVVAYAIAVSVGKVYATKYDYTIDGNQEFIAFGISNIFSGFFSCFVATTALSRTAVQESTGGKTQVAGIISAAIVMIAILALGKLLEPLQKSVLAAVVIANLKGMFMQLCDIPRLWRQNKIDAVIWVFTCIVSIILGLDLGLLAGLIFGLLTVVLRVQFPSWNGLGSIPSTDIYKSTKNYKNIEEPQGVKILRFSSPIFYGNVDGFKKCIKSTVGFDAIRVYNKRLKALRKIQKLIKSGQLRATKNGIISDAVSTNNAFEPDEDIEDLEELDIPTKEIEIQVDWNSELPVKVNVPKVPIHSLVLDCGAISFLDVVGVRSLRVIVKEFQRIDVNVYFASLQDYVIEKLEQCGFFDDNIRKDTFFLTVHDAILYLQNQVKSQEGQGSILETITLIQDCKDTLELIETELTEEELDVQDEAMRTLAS

Pendrin (Homo sapiens) [3] = biological target: T2, Pendrin (Homo sapiens) (UniProt O43511); test: Inhibition of human pendrin expressed in FRT cells co-expressing EYFP-HIF assessed as reduction in pendrin-mediated C17HCO3(-) exchange by measuring reduction in cytoplasmic alkalinization exchange at 25 uM by pH-sensitive fluorescent probe BCECF-AM based fluorescence assay relative to control; format: cell-based
T2 sequence (whole entry): T1 sequence (O43511 whole entry)

Pendrin (Homo sapiens) [4] = biological target: T2, Pendrin (Homo sapiens); test: Reversible inhibition of human pendrin expressed in FRT cells co-expressing EYFP-HIF assessed as reduction in pendrin-mediated C17SCN(-) exchange incubated for 10 mins measured after wash out by pH-sensitive fluorescent probe BCECF-AM based fluorescence assay relative to control; format: cell-based
Mus musculus [5] = test: Potentiation of 20 mg/kg, ip bid for 8 days furosemide-induced chronic diuretic action in CD1 mouse assessed as effect on urine osmolarity at 10 mg/kg, ip measured at 3 hrs relative to control; format: functional, organism-based
Pendrin (Homo sapiens) [6] = biological target: T2, Pendrin (Homo sapiens); test: Time dependent inhibition of human pendrin expressed in FRT cells co-expressing EYFP-HIF assessed as reduction in pendrin-mediated C17SCN(-) exchange by pH-sensitive fluorescent probe BCECF-AM based fluorescence assay relative to control; format: cell-based; conditions: TDE = time-dependent effect
Mus musculus [7] = test: Effect on renal function in CD1 mouse assessed as effect on urine pH at 50 mg/kg, ip; format: ADME, organism-based; conditions: in vivo
Mus musculus [8] = test: Effect on renal function in CD1 mouse assessed as effect on blood gas values at 50 mg/kg, ip; format: ADME, organism-based; conditions: in vivo
Mus musculus [9] = test: Effect on renal function in C57B/6 mouse assessed as effect on blood gas values at 50 mg/kg, ip; format: ADME, organism-based; conditions: in vivo
Pendrin (Homo sapiens) [10] = biological target: T2, Pendrin (Homo sapiens); test: Inhibition of human pendrin expressed in FRT cells co-expressing EYFP-HIF assessed as reduction in pendrin-mediated C17SCN(-) exchange incubated for 10 mins by pH-sensitive fluorescent probe BCECF-AM based fluorescence assay relative to control; format: cell-based
Mus musculus [11] = test: Potentiation of 20 mg/kg, ip bid for 8 days furosemide-induced chronic diuretic action in CD1 mouse assessed as increase in urinary K+ excretion at 10 mg/kg, ip measured at 3 hrs relative to control; format: functional, organism-based
Pendrin (Homo sapiens) [12] = biological target: T2, Pendrin (Homo sapiens); test: Inhibition of human pendrin expressed in FRT cells co-expressing EYFP-HIF assessed as reduction in pendrin-mediated C17F exchange incubated for 10 mins by pH-sensitive fluorescent probe BCECF-AM based fluorescence assay relative to control; format: cell-based
Mus musculus [13] = test: Effect on renal function in CD1 mouse assessed as effect on urinary salt excretion at 50 mg/kg, ip measured at 3 hrs; format: ADME, organism-based; conditions: in vivo
Mus musculus [14] = test: Potentiation of 20 mg/kg, ip bid for 8 days furosemide-induced chronic diuretic action in CD1 mouse assessed as increase in urinary Na+ excretion at 10 mg/kg, ip measured at 3 hrs relative to control; format: functional, organism-based
Pendrin (Homo sapiens) [15] = biological target: T2, Pendrin (Homo sapiens); test: Inhibition of pendrin in IL13-stimulated human bronchial epithelial cells assessed as reduction in gluconate gradient-induced intracellular alkalization at 25 uM; format: cell-based
Homo sapiens [16] = organism: Homo sapiens; test: Effect on airway surface liquid depth in human CFBE at 25 uM by rhodamine B-dextran fluorescence based confocal microscopy; format: functional
Homo sapiens [17] = organism: Homo sapiens; test: Effect on airway surface liquid pH in IL13-stimulated NHBE cells at 25 uM by pH-sensitive fluorophore BCECF based fluorescence based assay; format: functional, cell-based
Homo sapiens [18] = organism: Homo sapiens; test: Inhibition of ENaC in human bronchial epithelial cells assessed as effect on short-circuit current at 25 uM pre-incubated for 30 mins
Homo sapiens [19] = organism: Homo sapiens; test: Effect on gluconate gradient-induced Cl(-) efflux in NHBE cells at 25 uM; format: functional, cell-based

| IC50 (Pendrin) [µM] | inhibition (Pendrin (Homo sapiens) [3]) | inhibition (Pendrin (Homo sapiens) [4]) | inhibition (Pendrin (Homo sapiens) [6]) | inhibition (Pendrin (Homo sapiens) [10]) | inhibition (Pendrin (Homo sapiens) [12]) | inhibition (Pendrin (Homo sapiens) [15]) | inhibition (Homo sapiens [18]) | SMILES | Activity (Mus musculus [1]) | Activity (Mus musculus [2]) | Activity (Mus musculus [5]) | Activity (Mus musculus [7]) | Activity (Mus musculus [8]) | Activity (Mus musculus [9]) | Activity (Mus musculus [11]) | Activity (Mus musculus [13]) | Activity (Mus musculus [14]) | Activity (Homo sapiens [16]) | Activity (Homo sapiens [17]) | Activity (Homo sapiens [19]) |
| --- | --- | --- | --- | --- | --- | --- | --- | --- | --- | --- | --- | --- | --- | --- | --- | --- | --- | --- | --- | --- |
| 5 | Active | Active | Tde | Dose-dependent effect | Dose-dependent effect |  |  | Cc1n[nH]c(-c2cc(S(=O)(=O)NC3CCCc4ccccc43)c(C)s2)c1C (centres undefined) | Non-Toxic | Non-Toxic | inactive | Non-Toxic | Non-Toxic | Non-Toxic | Active | Non-Toxic | Active |  |  |  |
|  | Active | Active | Tde | Dose-dependent effect | Dose-dependent effect | Active | inactive | Cn1nc(COc2cccc(F)c2)c2c1CCN(C(=O)Nc1ccc(Cl)cc1)C2 | Non-Toxic | Non-Toxic | inactive | Non-Toxic | Non-Toxic | Non-Toxic | Active | Non-Toxic | Active | inactive | inactive | inactive |
